Biological target: T1, ribose binding protein RbsB (Escherichia coli, UniProt P02925)
T1 sequence (P02925 26-296): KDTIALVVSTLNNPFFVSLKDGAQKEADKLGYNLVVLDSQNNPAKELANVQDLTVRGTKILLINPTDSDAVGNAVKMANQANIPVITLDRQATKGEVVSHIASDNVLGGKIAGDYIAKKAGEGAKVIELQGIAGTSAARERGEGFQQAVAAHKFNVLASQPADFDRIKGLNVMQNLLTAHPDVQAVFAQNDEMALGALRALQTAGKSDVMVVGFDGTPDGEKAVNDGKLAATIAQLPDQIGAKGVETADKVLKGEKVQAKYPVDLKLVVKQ
Experiment: ITC with purified protein, […]°C, one-site fit

Kd: 125 nM
SMILES: O=C[C@H](O)[C@H](O)[C@H](O)CO [ribose]

Source: PMC4088097 (Scientific Reports, 2014)
